Measurements from patent publication US6383733B1, “Methods of screening for pharmacologically active compounds for the treatment of tumour diseases” (Boehringer Ingelheim International GmbH, priority 1996, dated 2002).

Columns and labels:
[1] = tested on: EpRas cells; assay: EF conversion of EpRas cells in collagen type I gels; assay type: cell-based, mouse
Protocol: (§1) Semiconfluent cultures of the cells to be analysed were trypsinised and adjusted to a final concentration of 4×10^4 cells per ml with ice-cold growth medium. Equal volumes of the cell suspension and an acidified solution of rat's tail collagen type 1 (Sigma) were mixed at 4° C., applied to 35 mm tissue culture dishes and incubated for 30 min at 37° C., in order to allow the solution to set to a gel. To allow the cells to form organotypical structures, the collagen gels were covered with a serum-free medium (MEGM; Promocel) containing bovine pituary extract (BPE), recombinant epidermal growth factor (EGF), hydrocortisone and insulin (in the concentrations recommended by the manufacturer). Where stated, 5 or 10% FCS or 5 ng/ml recombinant TGFβ1 (literature) were added. The medium covering the collagen gels was changed every two days. In order to neutralise the TGFβ1 produced by the cells or cell structures in the collagen gels a monoclonal antibody against TGFβ1 (Genzyme) or control antibody is used in concentrations of up to 50 μg/ml.
In order to identify the mechanism underlying the EF conversion, an experimental system was used with which EF conversion can be induced in vitro under defined and physiologically relevant conditions. For this purpose normal EpH4 cells or Ras-transformed subclones of these cells (Ep-Ras clones) were grown in reconstituted collagen type I gels, using serum-free medium. These conditions made it possible to add defined polypeptide growth factors and hormones which are known to be involved in the modulation of the epithelial phenotype. In gels of this kind, normal EpH4 cells developed into organ-like gland channels (tubuli) which frequently terminated in club-shaped hollow swellings. These structures looked very similar to the end buds of the developing mammary gland which are formed by primary breast epithelial cells both in collagen gels and also in vivo (FIG. 3A). These structures could be induced to produce milk proteins efficiently by the addition of lactogenic hormones. […]

[2] = tested on: EpH4 cells; assay: In vitro morphogenesis and apoptosis of normal EpH4 cells in collagen gels; assay type: cell-based, mouse
Protocol: as §1
Since the TGFβ-super-family of polypeptide factors is involved primarily in morphogenetic processes during embryo development, the role of TGFβ1 in normal mammary gland development was also examined within the scope of the present invention. For this purpose normal breast epithelial cells of the cell line EpH4 were sown in serum-free collagen gels. Unlike in the experiments in Example 3, the serum needed during sowing for the collagen gel to set and washed out one day later was specially selected for a low content of TGFβ1. […] Thus, these structures bore some resemblance to the end buds of the developing mammary gland.

[3] = tested on: EpRas cells; assay: Chicken embryo heart invasion assay with EpRas cells; assay type: cell-based, mouse; settings: 7 days co-cultivation with heart fragments
Protocol: This assay was carried out as described by Behrens et al., 1993. In order to be able to distinguish invasive donor cells clearly from chicken heart cells, the test cells were charged with a vital fluorescent dye before examination. For this the cells were incubated for 1 hour in a glucose-containing Hanks saline solution containing […] 5,6-carboxy-2′,7′-dichlorofluorescein diacetate-succinimidyl ester (Molecular Probes) and 0.2×10^−6 M Pluronic F127. In this way the fluorescent dye is covalently bound to intracellular proteins without affecting the viability or behaviour of the cells, determined by various differentiation and proliferation assays. The labelled cells were grown for 24 hours at high density, scraped off the plastic dish and brought into contact with pre-cultivated heart fragments of 9 day old chicken embryos on the surface of a soft agar layer. After 7 days' cultivation the fragments with the adhering cells were collected, flash-frozen in liquid nitrogen, frozen sections were prepared, fixed in methanol/acetone and the fluorescent cells were determined by epifluorescence microscopy (Axiophot, Zeiss).

[4] = tested on: EpRas cells; assay: Semi-quantitative PCR for TGFβ1-mRNA in cells grown in collagen gels; assay type: cell-based, mouse; settings: EpRas clones, 5 ng/ml TGFβ1, five days in collagen gels
Protocol: Total RNA from cells, grown on plastic, in collagen gels or from tumours, was isolated and processed for the semi-quantitative PCR. A TGFβ1-specific fragment was amplified by means of RT-PCR under semi-quantitative conditions, using -actin primers as the internal control, as described by Leonard et al., 1993. For this the DNA was denatured at 94° C. for 1 min, the primers were annealed at 65° C. for 1 min, and the polymerase reactions were continued at 72° C. for 1 min. The amplification was continued for 20 and 30 cycles. The TGFβ1-specific primers TGGACCGCAA CAACGCCATC TATCCAGAAAA CC (forward) and TGGAGCTGAAGCAATAGTTGGTATCCAGGGCT (reverse) (Clontech Inc.) were used. The results of the PCR were quantitatively evaluated on an Image Quant Phospho-Imager. The values were standardised on the control product (-actin) and subsequently correlated with the value from control-3T3-fibroblast.
Finally the amounts of TGFβ1-mRNA expressed in the cells and the TGFβ1 -protein released into the culture medium were determined. Three different EpRas clones as well as the parental EpH4 clone were grown for five days in collagen gels. […] At the protein level essentially the same results were obtained when serum-free culture supernatants were analysed by ELISA and Western blot (FIG. 7B).

[5] = tested on: EpRas cells; assay: TGFβ1-charged Slow Release Pellets coinjected with EpRas cells in mice; assay type: in vivo, mouse; settings: 4 days after subcutaneous injection
Protocol: (§2) In order to expose Ras-transformed breast epithelial cells to activated TGFβ1 very early in tumour development, TGFβ1 -charged Slow Release Elvax Pellets and either EpRas-epithelial cells or normal EpH4H cells were coinjected subcutaneously in mice. For control purposes pellets, charged only with BSA, were coinjected. The pellets were prepared and charged according to the manufacturer's instructions.
FIGS. 8E, F: Epithelial EpRas cells were injected subcutaneously into nude mice without (E) or together with 3-Elvax Slow Release Pellets charged with recombinant (active) TGFβ1 (F). Frozen sections obtained from 4 day old tumours were double-stained with antibodies against cytokeratin (red) and vimentin (green). What is noticeable is the dramatic migration of cells into the surrounding tissue induced in the vicinity of the TGFβ1 -releasing pellets (white circle).

[6] = tested on: EpH4 cells; assay: TGFβ1-charged Slow Release Pellets coinjected with EpH4 cells in mice; settings: mouse, in vivo
Protocol: as §2

[7] = tested on: PAI-1 promoter-reporter gene construct in CT26 cells; assay: Transient PAI-1 promoter-reporter gene (3TP-lux) luciferase assay; assay type: cell-based, mouse; settings: TGFβ added for 24 hours
Protocol: A PAI-1 promoter-reporter construct (reporter gene was luciferase; 3TP-lux, Wrana et al., 1992) was transfected by lipofectamine transfection (Gibco) according to the manufacturer's instructions into CT26 cells or CT26-TβRII-dn cells. 8 hours after transfection TGFβ1 was added for 24 hours, while the controls were left without TGFβ. Then cell lysates were prepared and the luciferase activity was measured in a Berthold Clinilumat as described by Wrana et al., 1992. In order to determine the transfection efficiency all the cells were cotransfected with an CMV-β-Gal reporter gene construct and the luciferase activities obtained were standardised by the β-Gal fluorescence intensity and by the protein concentration of the extract (Bradford).
CT26-control cells (CT26 controls) and 5 clones of CT26−TβRII-dn cells (CT26TβRII-dn 1-5) were transfected with a PAI-1 promoter-reporter gene construct (3TP-lux), the cells were stimulated with TGFβ (+TGFβ) or left unstimulated (−TGFβ) and the luciferase activity was measured in cell extracts. […]

In the case of “TGFβ1: Transforming Growth Factor β1, recombinant polypeptide factor added to cells or charged in Slow Release Elvax Pellets”, the “apoptosis / EFC of Ha-Ras-containing cells” value ([1]; TGFβ1 5 ng/ml) is reported as “not induced into apoptosis and undergo EFC without exception”, the “growth and phenotype of EpRas cells in collagen gel” value ([1]; TGFβ1 on its own, 5 ng/ml, serum-free collagen gel) is reported as “causes EpRas cells to grow into invasive strings of cells similar to those induced by FCS” and the “effect among growth factors added to EpRas cells in collagen gels” value ([1]; compared with heregulin, scatter factor/HGF, acidic and basic FGF, PDGF) is reported as “the only factor which showed striking and long-lasting effects on EpRas cells”. The “TGFβ1 concentration causing growth stop and apoptosis of normal epithelial cells” value ([2]; EpH4 cells in collagen gels) was > 0.25 ng/mL, the “structures formed by EpH4 cells after transient TGFβ1” value ([2]; TGFβ1 0.1 ng/ml until structures had formed, then washed out) was “formed well-shaped tubular structures with typical lumina” and the “structures formed by EpH4 cells” value ([2]; TGFβ1 0.1 ng/ml, serum selected for low TGFβ1 content) was “able to proliferate and form atypical structures which generally lacked lumina”. The “induction of EF conversion in non-tumorigenic control cells” value ([2]; collagen gels) was “not able to induce EF conversion”, the “invasivity of EpRas cells converted by TGFβ1 treatment” value [3] was “capable of migrating efficiently into the heart fragments” and the “TGFβ1-mRNA produced by fibroblastoid cells induced by TGFβ1” value [4] was “produced quantities of TGFβ1-mRNA which were comparable with those of control fibroblasts”. For the same substance, the “phenotype and migration of EpRas cells close to a TGFβ1 pellet” value [5] was “converted into irregularly shaped cells just 4 days after the injection and exhibited extensive migration into the surrounding host tissue”, the “phenotype of EpH4 cells close to TGFβ1 pellets” value [6] was “could not noticeably influence the phenotype of these non-tumorigenic cells” and the “reporter gene transcription in CT26 control cells” value [7] was “activates the reporter gene transcription to levels which are attained in the positive controls”.
